Measurements published in US9499547B2 (BAYER INTELLECTUAL PROPERTY GMBH, priority 2011, dated 2016).
pIC50: −log10 of the molar value.

What was measured:
human full-length MKNK1 [1] = target: T1, human full-length MKNK1 (Homo sapiens (Human), UniProt Q9BUB5, T344D); experiment: MKNK1 kinase assay (MKNK1 TR-FRET assay); format: biochemical; details: 10 μM ATP final conc.; 15 min preincubation with enzyme
Protocol: MKNK1-inhibitory activity of compounds of the present invention was quantified employing the MKNK1 TR-FRET assay as described in the following paragraphs.
As substrate for the kinase reaction the biotinylated peptide biotin-Ahx-[…] (C-terminus in amide form) was used which can be purchased e.g. form the company Biosyntan (Berlin-Buch, Germany).
(§1) For the assay 50 nL of a 100 fold concentrated solution of the test compound in DMSO was pipetted into a black low volume 384 well microtiter plate (Greiner Bio-One, Frickenhausen, Germany), 2 μL of a solution of MKNK1 in aqueous assay buffer [50 mM HEPES pH 7.5, 5 mM magnesium chloride, 1.0 mM dithiothreitol, 0.005% (v/v) Nonidet-P40 (Sigma)] was added and the mixture was incubated for 15 min at 22° C. to allow pre-binding of the test compounds to the enzyme before the start of the kinase reaction. Then the kinase reaction was started by the addition of 3 μL of a solution of adenosine-tri-phosphate (ATP, 16.7 μM=>final conc. in the 5 μL assay volume is 10 μM) and substrate (0.1 μM=>final conc. in the 5 μL assay volume is 0.06 μM) in assay buffer and the resulting mixture was incubated for a reaction time of 45 min at 22° C. The concentration of MKNK1 was adjusted depending of the activity of the enzyme lot and was chosen appropriate to have the assay in the linear range, typical concentrations were in the range of 0.05 μg/ml. The reaction was stopped by the addition of 5 μL of a solution of TR-FRET detection reagents (5 nM streptavidine-XL665 [Cisbio Bioassays, Codolet, France] and 1 nM anti-ribosomal protein S6 (pSer236)-antibody from Invitrogen [#44921G] and 1 nM LANCE EU-W1024 labeled ProteinG [Perkin-Elmer, product no. AD0071]) in an aqueous EDTA-solution (100 mM EDTA, 0.1% (w/v) bovine serum albumin in 50 mM HEPES pH 7.5).
(§2) The resulting mixture was incubated for 1 h at 22° C. to allow the formation of complex between the phosphorylated biotinylated peptide and the detection reagents. Subsequently the amount of phosphorylated substrate was evaluated by measurement of the resonance energy transfer from the Eu-chelate to the streptavidine-XL. Therefore, the fluorescence emissions at 620 nm and 665 nm after excitation at 350 nm were measured in a TR-FRET reader, e.g. a Rubystar (BMG Labtechnologies, Offenburg, Germany) or a Viewlux (Perkin-Elmer). The ratio of the emissions at 665 nm and at […] was taken as the measure for the amount of phosphorylated substrate. The data were normalised (enzyme reaction without inhibitor=0% inhibition, all other assay components but no enzyme=100% inhibition).

human full-length MKNK1 [2] = target: T1, human full-length MKNK1; experiment: MKNK1 kinase high ATP assay (TR-FRET-based); format: biochemical; details: 2 mM ATP final conc.; 15 min preincubation with enzyme
Protocol: MKNK1 Kinase High ATP Assay
MKNK1-inhibitory activity at high ATP of compounds of the present invention after their preincubation with MKNK1 was quantified employing the TR-FRET-based MKNK1 high ATP assay as described in the following paragraphs.
As substrate for the kinase reaction the biotinylated peptide biotin-Ahx-[…] (C-terminus in amide form) was used, which can be purchased e.g. from the company Biosyntan (Berlin-Buch, Germany).
as §1, with “3.3 mM=>final” for “16.7 μM=>final”, “2 mM)” for “10 μM)”, “30” for “45”, “0.003 μg/mL.” for “0.05 μg/ml.”
as §2

T1 sequence (Q9BUB5 other isoform, or with tags, fused parts or gaps T344D): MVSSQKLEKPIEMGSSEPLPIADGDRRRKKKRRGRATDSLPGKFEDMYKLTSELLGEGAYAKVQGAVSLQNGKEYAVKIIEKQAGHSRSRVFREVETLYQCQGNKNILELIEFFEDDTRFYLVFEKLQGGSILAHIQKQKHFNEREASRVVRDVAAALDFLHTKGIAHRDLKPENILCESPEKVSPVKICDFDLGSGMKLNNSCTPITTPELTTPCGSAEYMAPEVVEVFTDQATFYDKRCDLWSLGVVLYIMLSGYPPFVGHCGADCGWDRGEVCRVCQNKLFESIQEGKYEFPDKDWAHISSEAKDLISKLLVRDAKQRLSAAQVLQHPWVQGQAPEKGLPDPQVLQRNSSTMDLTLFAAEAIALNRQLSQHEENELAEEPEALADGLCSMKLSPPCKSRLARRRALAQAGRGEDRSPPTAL

SMILES	pIC50 (human full-length MKNK1 [1])	pIC50 (human full-length MKNK1 [2])
COc1cccc2oc(-c3cnc4ccc(OCCCCN)nn34)cc12 [Example 1, 4-{[3-(4-Methoxy-1-benzofuran-2-yl)imidazo[1,2-b]pyridazin-6-yl]oxy}butan-1-amine]	8.52	8.30
N[C@H]1C[C@H](Oc2ccc3ncc(-c4cc5ccccc5o4)n3n2)C1 [Example 2, trans-3-{[3-(1-Benzofuran-2-yl)imidazo[1,2-b]pyridazin-6-yl]oxy}cyclobutanamine]	8.30	8.22
N[C@H]1C[C@@H](Oc2ccc3ncc(-c4cc5ccccc5o4)n3n2)C1 [Example 3, cis-3-{[3-(1-Benzofuran-2-yl)imidazo[1,2-b]pyridazin-6-yl]oxy}cyclobutanamine]	8.40	7.77
COc1cccc2oc(-c3cnc4ccc(OCCCN)nn34)cc12 [Example 4, 3-{[3-(4-Methoxy-1-benzofuran-2-yl)imidazo[1,2-b]pyridazin-6-yl]oxy}propan-1-amine]	8.30	7.82
COc1cccc2oc(-c3cnc4ccc(OCCN)nn34)cc12 [Example 5, 2-{[3-(4-Methoxy-1-benzofuran-2-yl)imidazo[1,2-b]pyridazin-6-yl]oxy}ethanamine]	8.22	7.74
COc1ccc2oc(-c3cnc4ccc(OCCN)nn34)cc2c1 [Example 6, 2-{[3-(5-Methoxy-1-benzofuran-2-yl)imidazo[1,2-b]pyridazin-6-yl]oxy}ethanamine]	8.22	7.89
C[C@H](N)COc1ccc2ncc(-c3cc4ccccc4o3)n2n1 [Example 7, (2S)-1-{[3-(1-Benzofuran-2-yl)imidazo[1,2-b]pyridazin-6-yl]oxy}propan-2-amine]	8.15	7.74
NCCCCOc1ccc2ncc(-c3cc4ccccc4o3)n2n1 [Example 8, 4-{[3-(1-Benzofuran-2-yl)imidazo[1,2-b]pyridazin-6-yl]oxy}butan-1-amine]	8.15	7.77
COc1ccc2oc(-c3cnc4ccc(OCCCN)nn34)cc2c1 [Example 9, 3-{[3-(5-Methoxy-1-benzofuran-2-yl)imidazo[1,2-b]pyridazin-6-yl]oxy}propan-1-amine]	8.15	7.66
NCCCOc1ccc2ncc(-c3cc4ccccc4o3)n2n1 [Example 11, 3-{[3-(1-Benzofuran-2-yl)imidazo[1,2-b]pyridazin-6-yl]oxy}propan-1-amine]	8.10	7.62
NCCOCCOc1ccc2ncc(-c3cc4ccccc4o3)n2n1 [Example 21, 2-(2-{[3-(1-Benzofuran-2-yl)imidazo[1,2-b]pyridazin-6-yl]oxy}ethoxy)ethanamine]	–	7.85
N[C@@H]1CCCC[C@H]1Oc1ccc2ncc(-c3cc4ccccc4o3)n2n1 [Example 23, (1R,2R)-2-{[3-(1-Benzofuran-2-yl)imidazo[1,2-b]pyridazin-6-yl]oxy}cyclohexanamine]	–	7.74
NC1(COc2ccc3ncc(-c4cc5ccccc5o4)n3n2)CCC1 [Example 27, 1-({[3-(1-Benzofuran-2-yl)imidazo[1,2-b]pyridazin-6-yl]oxy}methyl)cyclobutanamine]	–	7.54
C=CCCC(CN)Oc1ccc2ncc(-c3cc4ccccc4o3)n2n1 (centres unmarked) [Example 28, 2-{[3-(1-Benzofuran-2-yl)imidazo[1,2-b]pyridazin-6-yl]oxy}hex-5-en-1-amine]	–	7.35
NCC(CN1CCOCC1)Oc1ccc2ncc(-c3cc4ccccc4o3)n2n1 (centres unmarked) [Example 31, 2-{[3-(1-Benzofuran-2-yl)imidazo[1,2-b]pyridazin-6-yl]oxy}-3-(morpholin-4-yl)-propan-1-amine]	–	7.11
NC(COc1ccc2ncc(-c3cc4ccccc4o3)n2n1)C1CCOCC1 (centres unmarked) [Example 32, 2-{[3-(1-Benzofuran-2-yl)imidazo[1,2-b]pyridazin-6-yl]oxy}-1-(tetrahydro-2H-pyran-4-yl)ethanamine]	–	7.10
NCC(Cc1ccc(F)cc1)Oc1ccc2ncc(-c3cc4ccccc4o3)n2n1 (centres unmarked) [Example 53, 2-{[3-(1-Benzofuran-2-yl)imidazo[1,2-b]pyridazin-6-yl]oxy}-3-(4-fluorophenyl)-propan-1-amine]	–	7.34
NCC(Cc1ccncc1)Oc1ccc2ncc(-c3cc4ccccc4o3)n2n1 (centres unmarked) [Example 54, 2-{[3-(1-Benzofuran-2-yl)imidazo[1,2-b]pyridazin-6-yl]oxy}-3-(pyridin-4-yl)-propan-1-amine]	–	7.72
NC[C@H](Oc1ccc2ncc(-c3cc4ccccc4o3)n2n1)c1cccnc1 [Example 55, (2R)-2-{[3-(1-benzofuran-2-yl)imidazo[1,2-b]pyridazin-6-yl]oxy}-2-(pyridin-3-yl)ethanamine]	7.80	–
NCC(Oc1ccc2ncc(-c3cc4ccccc4o3)n2n1)c1ccc(F)cc1 (centres unmarked) [Example 56, 2-{[3-(1-benzofuran-2-yl)-imidazo-[1,2-b]-pyridazin-6-yl]oxy}-2-(4-fluoro-phenyl)-ethanamine]	7.40	–
NCC(Oc1ccc2ncc(-c3cc4ccccc4o3)n2n1)c1ccccn1 (centres unmarked) [Example 57, 2-{[3-(1-benzofuran-2-yl)-imidazo-[1,2-b]-pyridazin-6-yl]oxy}-2-(pyridin-2-yl)-ethanamine]	7.03	–
CC(C)Oc1cccc(C(CN)Oc2ccc3ncc(-c4cc5ccccc5o4)n3n2)c1 (centres unmarked) [Example 58, 2-{[3-(1-benzofuran-2-yl)-imidazo-[1,2-b]-pyridazin-6-yl]oxy}-2-(3-iso-propoxy-phenyl)-ethanamine]	7.70	–
NCC(Oc1ccc2ncc(-c3cc4ccccc4o3)n2n1)c1cccc(C(F)(F)F)c1 (centres unmarked) [Example 59, 2-{[3-(1-benzofuran-2-yl)-imidazo-[1,2-b]-pyridazin-6-yl]oxy}-2-[3-(tri-fluoro-methyl)-phenyl]-ethanamine]	7.43	–
NCC(Oc1ccc2ncc(-c3cc4ccccc4o3)n2n1)c1ccc(F)cc1F (centres unmarked) [Example 60, 2-{[3-(1-benzofuran-2-yl)-imidazo-[1,2-b]-pyridazin-6-yl]oxy}-2-(2,4-di-fluoro-phenyl)-ethanamine]	7.41	–
N[C@H](COc1ccc2ncc(-c3cc4ccccc4o3)n2n1)c1ccc(F)cc1 [Example 61, (1S)-2-{[3-(1-benzofuran-2-yl)imidazo[1,2-b]pyridazin-6-yl]oxy}-1-(4-fluorophenyl)ethanamine]	7.54	–
N[C@H](COc1ccc2ncc(-c3cc4ccccc4o3)n2n1)c1ccc(Cl)cc1 [Example 62, (1S)-2-{[3-(1-benzofuran-2-yl)imidazo[1,2-b]pyridazin-6-yl]oxy}-1-(4-chlorophenyl)ethanamine]	7.51	–
NC(COc1ccc2ncc(-c3cc4ccccc4o3)n2n1)c1cccnc1 (centres unmarked) [Example 63, 2-{[3-(1-benzofuran-2-yl)imidazo[1,2-b]pyridazin-6-yl]oxy}-1-(pyridin-3-yl)ethanamine]	7.27	–
NCCC(Oc1ccc2ncc(-c3cc4ccccc4o3)n2n1)c1ccc(F)cc1 (centres unmarked) [Example 64]	7.24	–
